Source: US10597388B2, “Pyridazinone herbicides” (FMC CORPORATION, priority 2014, dated 2020)

Key:
Type in all cases: in vivo
[1] = test system: galium (catchweed bedstraw, Galium aparine); assay: Test A greenhouse herbicide test, postemergence
Procedure, shortened: (§1)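 Seedlings in a loam soil and sand mix received formulated compound postemergence at the one- to two-leaf stage. Greenhouse holding lasts approximately 10 d, then injury is scored visually relative to untreated plants, 0 meaning no effect and 100 complete control.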

[2] = test system: blackgrass (Alopecurus myosuroides); assay: Test A greenhouse herbicide test, postemergence
Procedure, shortened: as §1

kochia (Kochia scoparia) = assay: Test C greenhouse herbicide test, postemergence
Procedure, shortened: (§2)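 Plants grown in potting mix of peat moss, vermiculite, wetting agent and starter nutrients were sprayed postemergence at 2 to 18 cm height (1- to 4-leaf stage). After 13 to 15 d in the greenhouse, injury was visually rated against untreated controls on a 0–100 scale (0 no effect, 100 complete control).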

[3] = test system: oat, wild (wild oat, Avena fatua); assay: Test C greenhouse herbicide test, postemergence
Procedure, shortened: as §2

[4] = test system: chickweed (common chickweed, Stellaria media); assay: Test C greenhouse herbicide test, postemergence
Procedure, shortened: as §2

[5] = test system: ryegrass, Italian (Italian ryegrass, Lolium multiflorum); assay: Test C greenhouse herbicide test, pre- and postemergence
Procedure, shortened: (§3)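 Greenhouse pots; pre-em on seeded loam:sand blend, post-em on 2–18 cm plants (1–4 leaf) in sphagnum peat/vermiculite medium. Formulation: non-phytotoxic solvent + surfactant. Read-out: visual % control (0–100) vs controls at 13–15 d.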

[6] = test system: galium (catchweed bedstraw, Galium aparine); assay: as above
Procedure, shortened: as §3

[7] = test system: pigweed (Amaranthus retroflexus); assay: as above
Procedure, shortened: as §3

[8] = test system: ragweed (common ragweed, Ambrosia elatior); assay: as above
Procedure, shortened: as §3

[9] = test system: velvetleaf (Abutilon theophrasti); assay: as above
Procedure, shortened: as §3

[10] = test system: barnyardgrass (Echinochloa crus-galli); assay: as above
Procedure, shortened: as §3

soybean (Glycine max) = assay: as above
Procedure, shortened: as §3

[11] = test system: nutsedge, yellow (yellow nutsedge, Cyperus esculentus); assay: as above
Procedure, shortened: as §3

[12] = test system: blackgrass (Alopecurus myosuroides); assay: as above
Procedure, shortened: as §3

[13] = 125 g ai/ha, 0 to 100 scale where 0 is no effect and 100 is complete control
[14] = 500 g ai/ha, 0 to 100 scale, 0 is no effect, 100 is complete control
[15] = Postemergence, 31 g ai/ha, 0 to 100 scale (0 no effect, 100 complete control)
[16] = Postemergence, 125 g ai/ha, scale 0 to 100, 0 is no effect, 100 is complete control
[17] = Postemergence, 250 g ai/ha, scale 0 to 100, 0 no effect, 100 complete control, 13 to 15 d
[18] = postemergence, 62 g ai/ha, scale 0 to 100, 0 no effect, 100 complete control
[19] = Preemergence, 31 g ai/ha, scale 0 to 100, 0 is no effect, 100 is complete control
[20] = Preemergence, 62 g ai/ha, scale 0 to 100, 0 is no effect, 100 is complete control
[21] = Preemergence, 125 g ai/ha, scale 0 to 100, 0 is no effect, 100 is complete control
[22] = Preemergence, 250 g ai/ha, scale 0 to 100, 0 no effect, 100 complete control

CCc1sc2ccc(C)cc2c1-c1c(O)c(C)nn(C)c1=O [Compound 47]
100: Galium plant response rating [1, 14] | Plant response rating, Pigweed [7, 19] | Plant response rating, Pigweed [7, 20] | Plant response rating, Pigweed [7, 21] | Pigweed plant response rating [7, 22] | Plant response rating, Ragweed [8, 17] | Ragweed plant response rating [8, 22] | Plant response rating, Velvetleaf [9, 21] | Velvetleaf plant response rating [9, 22] | Barnyardgrass plant response rating [10, 22]
45: Plant response rating, Ryegrass, Italian [5, 21] | Plant response rating, Nutsedge, Yellow [11, 20]
85: Plant response rating, Ragweed [8, 20] | Plant response rating, Barnyardgrass [10, 16] | Plant response rating, Barnyardgrass [10, 21] | Nutsedge, Yellow plant response rating [11, 22]
0: Ryegrass, Italian plant response rating [5, 15] | Plant response rating, Ryegrass, Italian [5, 19] | Soybean plant response rating (soybean (Glycine max); [15]) | Plant response rating, Soybean (soybean (Glycine max); [19]) | Plant response rating, Soybean (soybean (Glycine max); [20]) | Blackgrass plant response rating [12, 15] | Plant response rating, Blackgrass [12, 19]
75: Kochia plant response rating (kochia (Kochia scoparia); [15]) | Plant response rating, Nutsedge, Yellow [11, 21]
60: Plant response rating, Blackgrass [2, 13]
98: Plant response rating, Kochia (kochia (Kochia scoparia); [17]) | Plant response rating, Chickweed [4, 16] | Plant response rating, Chickweed [4, 17] | Plant response rating, Galium [6, 21] | Galium plant response rating [6, 22] | Plant response rating, Pigweed [7, 16] | Plant response rating, Pigweed [7, 17] | Plant response rating, Ragweed [8, 16] | Plant response rating, Ragweed [8, 21] | Ragweed plant response rating [8, 18]
15: Barnyardgrass plant response rating [10, 15] | Plant response rating, Soybean (soybean (Glycine max); [17])
35: Plant response rating, Nutsedge, Yellow [11, 19]
10: Oat, Wild plant response rating [3, 18] | Ryegrass, Italian plant response rating [5, 18] | Plant response rating, Soybean (soybean (Glycine max); [16]) | Plant response rating, Soybean (soybean (Glycine max); [21]) | Soybean plant response rating (soybean (Glycine max); [18])
25: Plant response rating, Ryegrass, Italian [5, 16]
55: Barnyardgrass plant response rating [10, 18]
95: Plant response rating, Kochia (kochia (Kochia scoparia); [16]) | Plant response rating, Galium [6, 20] | Plant response rating, Velvetleaf [9, 16] | Plant response rating, Velvetleaf [9, 17]
5: Oat, Wild plant response rating [3, 15] | Plant response rating, Barnyardgrass [10, 19]
50: Plant response rating, Oat, Wild [3, 17] | Ryegrass, Italian plant response rating [5, 22] | Plant response rating, Ragweed [8, 19]
80: Galium plant response rating [6, 15] | Ragweed plant response rating [8, 15] | Plant response rating, Nutsedge, Yellow [11, 16]
65: Plant response rating, Velvetleaf [9, 19]
20: Plant response rating, Ryegrass, Italian [5, 20] | Plant response rating, Barnyardgrass [10, 20] | Blackgrass plant response rating [12, 18]
90: Plant response rating, Galium [1, 13] | Kochia plant response rating (kochia (Kochia scoparia); [18]) | Chickweed plant response rating [4, 15] | Chickweed plant response rating [4, 18] | Plant response rating, Galium [6, 16] | Plant response rating, Galium [6, 17] | Plant response rating, Galium [6, 19] | Galium plant response rating [6, 18] | Pigweed plant response rating [7, 15] | Pigweed plant response rating [7, 18] | Plant response rating, Velvetleaf [9, 20] | Velvetleaf plant response rating [9, 18] | Plant response rating, Barnyardgrass [10, 17] | Plant response rating, Nutsedge, Yellow [11, 17] | Blackgrass plant response rating [12, 22]
30: Plant response rating, Oat, Wild [3, 16] | Plant response rating, Ryegrass, Italian [5, 17] | Soybean plant response rating (soybean (Glycine max); [22]) | Plant response rating, Blackgrass [12, 16] | Plant response rating, Blackgrass [12, 17] | Plant response rating, Blackgrass [12, 20]
40: Nutsedge, Yellow plant response rating [11, 15] | Plant response rating, Blackgrass [12, 21]
70: Blackgrass plant response rating [2, 14] | Velvetleaf plant response rating [9, 15] | Nutsedge, Yellow plant response rating [11, 18]
